Data published in patent EP1231468A1, “METHOD FOR DETECTING EXOGENOUS ENDOCRINE DISRUPTING CHEMICAL AND DETECTION APPARATUS” (Central Research Institute of Electric Power Industry, priority 1999, dated 2001).

Biological target: T1, human estrogen receptor α (Homo sapiens, UniProt P03372)
T1 sequence (P03372 1-595): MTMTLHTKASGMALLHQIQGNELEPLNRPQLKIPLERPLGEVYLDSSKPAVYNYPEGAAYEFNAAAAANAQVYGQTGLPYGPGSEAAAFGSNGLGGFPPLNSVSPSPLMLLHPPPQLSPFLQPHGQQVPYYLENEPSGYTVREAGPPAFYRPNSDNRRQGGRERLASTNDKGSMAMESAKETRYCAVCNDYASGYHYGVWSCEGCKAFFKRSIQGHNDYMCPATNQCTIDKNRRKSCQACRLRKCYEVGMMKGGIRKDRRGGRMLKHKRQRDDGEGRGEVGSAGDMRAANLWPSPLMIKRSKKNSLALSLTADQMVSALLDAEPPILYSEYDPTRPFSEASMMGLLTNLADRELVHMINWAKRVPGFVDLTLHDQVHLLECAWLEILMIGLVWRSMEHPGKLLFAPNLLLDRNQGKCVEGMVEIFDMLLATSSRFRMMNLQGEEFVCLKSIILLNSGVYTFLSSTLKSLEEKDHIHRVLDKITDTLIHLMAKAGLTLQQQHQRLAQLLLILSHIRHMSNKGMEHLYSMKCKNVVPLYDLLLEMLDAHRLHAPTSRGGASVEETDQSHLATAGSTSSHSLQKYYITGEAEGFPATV
Assay: Competitive bonding of E2-BSA-CY5 and test substance to immobilized estrogen receptor, flow-type fluorescence detection
Assay type: binding
Settings: for range of concentration in which reduction in fluorescence intensity can be confirmed / substance can be detected: bonding inhibition ratio against concentration, Fig. 4, Fig. 6; for inhibition of bonding of E2-BSA-CY5 to the receptor (reduction in fluorescence intensity): various concentrations added to E2-BSA-CY5 of fixed concentration, Fig. 3, Fig. 5
Method: As an estrogen receptor, a human estrogen receptor α [manufactured by PanVela Corporation, Drive Madison, Wisconsin, USA] was used.
Immobilization of the estrogen receptor to a carrier (beads) was carried out by natural adsorption. […] 0.2 g of the beads was put in a small test tube, and suspended in 1 ml of a buffer for bonding (50 mM tris HCl, 500 mM KCl, 2mM DDT, 1mM EDTA, 10% glycerol, pH 7.8). 70 pmol of the estrogen receptor was put in this suspension, and blended for 30 minutes at a room temperature. Thereafter, 100 µl of bovine serum albumin was added so as to obtain the final concentration of 1 mg/ml. After addition, it is further blended for 30 minutes at a room temperature. Subsequently, the particles were washed by using the same buffer, again suspended in 30 ml of the same buffer, and used for measurement. It is to be noted that, as beads for comparison in which the estrogen receptor is not immobilized, those obtained by adding only bovine serum albumin to the beads were prepared by the similar operation.
In order to provide this fluorescence dye, a CY5 labeling kit [manufactured by Amersham Life Science, Arlington Heights, Illinois, USA] was used. The 17β-estradiol-bovine serum albumin having the fluorescence dye given thereto and the free fluorescence dye were partitioned by the gel filtration chromatography.
For measurement of a fluorescence intensity, a detector having a flow type fluorophotometer [manufactured by Sapidyne Instrument Inc., Boise, Idaho, USA] incorporated therein was used. […] The fluorescence intensity can be measured in units of an electrical signal by an excitation light source 3 and the detector 4 arranged with a glass cell 1 having a diameter of 1.5 mm and a length of 30 mm therebetween. The immobilized estrogen receptor 2 having the shape of beads is filled in the glass cell 1 by being banked up and laminated by a screen S consisting of 50 µm nylon mesh set in the glass cell 1. […] The material remaining between beads, which is not bonded to the receptor 2, is discharged from the direction indicated by an arrow b by leading only the buffer at a speed of 1.5 ml/min. Thereafter, the remaining fluorescence intensity was evaluated as a quantity of bonding. Specifically, the buffer for bonding was diluted with E2-BSA-CY5 so as to obtain approximately 400 ng/ml. It is to be noted that this concentration was appropriately adjusted in accordance with a ratio of provision of the fluorescence in E2-BSA-CY5. The same quantity of the buffer for bonding in which a natural hormone or a chemical substance with the already-known concentration was dissolved was added to the diluted solution and left to take its own course at a room temperature for 30 minutes. Incidentally, in case of a water-insoluble material, it was completely dissolved in dimethyl sulfoxide and then appropriately diluted. Further, it was left to stand and used for measurement.

Compound: nonylphenol
- range of concentration in which reduction in fluorescence intensity can be confirmed / substance can be detected: 10^-9 to 10^-5 M
- inhibition of bonding of E2-BSA-CY5 to the receptor (reduction in fluorescence intensity): the fluorescence intensity was lowered

Compound: CC(C)(c1ccc(O)cc1)c1ccc(O)cc1 [bisphenol A]
- range of concentration in which reduction in fluorescence intensity can be confirmed / substance can be detected: 10^-8 to 10^-6 M
- inhibition of bonding of E2-BSA-CY5 to the receptor (reduction in fluorescence intensity): the fluorescence intensity was lowered

Compound: C[C@]12CC[C@H]3[C@@H](CCC4=CC(=O)CC[C@@]43C)[C@@H]1CC[C@@H]2O [testosterone, reference compound]
- inhibition of bonding of E2-BSA-CY5 to the receptor (reduction in fluorescence intensity): did not inhibit
